Results from PubChem BioAssay (NCI).
“And” between values parts separate entries of the source, which are not always exact repeats. Identical values can stand only once.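 48-hour exposure; five concentrations; linearly interpolated endpoints. TGI is the concentration that stops growth completely.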

Tested on: P388 leukemia
Assay: NCI tumour cell line growth inhibition, 48 h

## CCc1ccccc1N1CCN(C(=O)c2cc(OC)c(OC)c(OC)c2)CC1
  TGI: 367 nM

## COC(C(=O)C(O)C(C)O)C1Cc2cc3cc(OC4CC(OC(C)=O)C(OC5CC(O)C(OC)C(C)O5)C(C)O4)cc(O)c3c(O)c2C(=O)C1OC1CC(OC2CC(OC3CC(C)(O)C(OC(=O)C(C)C)C(C)O3)C(O)C(C)O2)C(O)C(C)O1 (configuration not stated)
  TGI: 237 nM and 29.3 nM
